In patent US20260226086A1, “COMPOUNDS AND COMPOSITIONS AS STAT3 DEGRADERS AND USES THEREOF” (REGENTS OF THE UNIVERSITY OF MICHIGAN, priority 2023, published 2026):

Assays:
STAT3 = molecular target: T1, STAT3 (Homo sapiens, UniProt P40763); experiment: HiBiT assay, STAT3 degradation in STAT3-HiBiT KI HeLa cells; type: cell-based; conditions: for DC50 / Dmax at 1 µM: 24 h; for DC50: read-out: STAT3 Degradation (HeLa 24 h HiBit) DC50
T1 construct: This cell line is a clone created by using CRISPR-Cas9 to fuse HiBiT to the 3′ end of STAT3 in HeLa cells; host or cells: STAT3-HiBiT KI HeLa cell line (CRISPR-Cas9 knock-in clone)
Procedure: STAT3 degradation may be determined by HiBiT assay. STAT3-HiBiT KI HeLa cell line, which is a clone created by using CRTISPR-Cas9 to fuse HiBiT to the 3′ end of STAT3 in HeLa cells, may be used for this assay. In a typical procedure, cells seeded at certain amounts of cells (e.g., 20000 cells) per well are incubated with serially diluted compounds for certain period of time (e.g., 24 hours) under certain conditions (e.g., at 37° C. with 5% CO2). At the end of treatment, Nano-Glo HiBiT Lytic Detection reagents is added to the wells and luminescence is acquired on TECAN SPARK plate reader. Untreated cells are used as control. Data points are fit with a four-parameter equation to generate a concentration-response curve. IC50 values are calculated using a nonlinear regression analysis of the mean±SD from triplicate.
STAT3-HiBiT KI HeLa cell line was purchased from Promega. This cell line is a clone created by using CRISPR-Cas9 to fuse HiBiT to the 3′ end of STAT3 in HeLa cells. DMEM medium and FBS were purchased from Gibco/Thermo Fisher Scientific. STAT3 degradation was determined based on quantification of luminescent signal using Nano-Glo HiBiT Lytic Detection System. In a typical procedure, cells seeded at 20000 cells per well in 96-well white plates (Corning) were incubated with serially diluted compounds for 24 hours at 37° C. with 5% CO2. At the end of treatment, Nano-Glo HiBiT Lytic Detection reagents was added to the wells and luminescence was acquired on TECAN SPARK plate reader. Untreated cells were used as control. Data points were fit with a four-parameter equation to generate a concentration-response curve. IC50 values were calculated using a nonlinear regression analysis of the mean±SD from triplicate.

SUP-M2 cells = experiment: CellTiter-Glo 2.0 cell viability assay, SUP-M2; type: cell-based; conditions: SUP-M2, 96 h, 4 days
Procedure: For example, cell viability may be determined by CellTiter-Glo 2.0 Cell Viability Assay. In a typical procedure, cells seeded at certain amounts of cells (e.g., 1000 cells) per well are incubated with serially diluted compounds for certain period (e.g., 4 days) under certain conditions (e.g., at 37° C. with 5% CO2). At the end of treatment, CellTiter-Glo 2.0 is added to the wells and luminescence is acquired on TECAN SPARK plate reader. Untreated cells are used as control, Data points are fit with an equation (e.g., a four-parameter equation) to generate a concentration-response curve. IC50 values are calculated using a nonlinear regression analysis of the mean±SD from triplicate.
SU-DHL-1 and SUP-M2 cell viability was determined by CellTiter-Glo 2.0 Cell Viability Assay (Promega). SU-DHL-1 cell line was purchased from ATCC (Manassas, VA) and SUP-M2 (ACC-509) was purchased from DSMZ (Germany). RPMI 1640 medium and fetal bovine serum (FBS) were purchased from Gibco/Thermo Fisher Scientific. In a typical procedure, cells seeded at 1000 cells per well in 384-well white plates (Corning) were incubated with serially diluted compounds for 4 days at 37° C. with 5% C02. At the end of treatment, CellTiter-Glo 2.0 was added to the wells and luminescence was acquired on TECAN SPARK plate reader. Untreated cells were used as control. Data points were fit with a four-parameter equation to generate a concentration-response curve. IC50 values were calculated using a nonlinear regression analysis of the mean±SD from triplicate.

T1 sequence (P40763 whole entry): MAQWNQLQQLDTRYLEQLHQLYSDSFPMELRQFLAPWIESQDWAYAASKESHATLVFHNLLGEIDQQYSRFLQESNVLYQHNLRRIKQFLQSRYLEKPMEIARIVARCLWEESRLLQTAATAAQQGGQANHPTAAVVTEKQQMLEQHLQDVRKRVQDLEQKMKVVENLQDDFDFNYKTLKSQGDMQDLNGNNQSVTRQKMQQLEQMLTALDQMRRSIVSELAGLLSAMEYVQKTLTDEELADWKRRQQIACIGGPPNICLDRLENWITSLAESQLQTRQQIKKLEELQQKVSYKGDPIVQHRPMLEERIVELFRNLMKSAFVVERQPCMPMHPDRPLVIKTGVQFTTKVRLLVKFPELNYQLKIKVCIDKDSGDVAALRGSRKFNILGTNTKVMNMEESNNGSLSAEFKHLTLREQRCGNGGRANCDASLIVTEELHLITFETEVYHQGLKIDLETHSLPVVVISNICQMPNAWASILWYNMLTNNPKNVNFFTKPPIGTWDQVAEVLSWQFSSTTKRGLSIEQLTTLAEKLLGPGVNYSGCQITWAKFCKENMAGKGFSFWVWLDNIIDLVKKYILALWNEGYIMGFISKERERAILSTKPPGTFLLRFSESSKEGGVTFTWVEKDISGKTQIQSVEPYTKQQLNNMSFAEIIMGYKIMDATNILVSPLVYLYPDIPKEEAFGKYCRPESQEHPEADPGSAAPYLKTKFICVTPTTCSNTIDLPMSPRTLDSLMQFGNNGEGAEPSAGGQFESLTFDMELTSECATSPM

Compound | DC50 (STAT3) | STAT3 Degradation (HeLa 24 h HiBit) Dmax (@1 μM) (STAT3) | IC50 (SUP-M2 cells) | Dmax at 1 µM (STAT3)
COCCOCCOC[C@H](NC(=O)[C@@H]1C[C@@H](O)CN1C(=O)[C@@H](n1cc(CCCc2cccc(OC[C@H](CCC(N)=O)NC(=O)[C@@H]3CC[C@@H]4CCN(C(C)=O)C[C@H](NC(=O)c5cc6cc(C(=O)P(=O)(O)O)ccc6[nH]5)C(=O)N43)c2Cl)nn1)C(C)(C)C)c1ccc(-c2scnc2C)cc1 [Compound 41, (2-(((5S,8S,10aR)-3-acetyl-8-(((S)-5-amino-1-(2-chloro-3-(3-(1-((S)-1-((2S,4R)-4-hydroxy-2-(((R)-2-(2-(2-methoxyethoxy)ethoxy)-1-(4-(4-methylthiazol-5-yl)phenyl)ethyl)carbamoyl)pyrrolidin-1-yl)-3,3-dimethyl-1-oxobutan-2-yl)-1H-1,2,3-triazol-4-yl)propyl)phenoxy)-5-oxopentan-2-yl)carbamoyl)-6-oxodecahydropyrrolo[1,2-a][1,5]diazocin-5-yl)carbamoyl)-1H-indole-5-carbonyl)phosphonic acid] | 0.01 to 0.1 µM | A (A (>=80%)) | 0.01 to 0.1 µM | 
CCS(=O)(=O)c1ccc(CNC(=O)[C@H](CCC(N)=O)NC(=O)[C@@H]2CC[C@@H]3CCN(C(=O)CCCCCc4cn([C@H](C(=O)N5C[C@H](O)C[C@H]5C(=O)N[C@@H](COCCOCCOC)c5ccc(-c6scnc6C)cc5)C(C)(C)C)nn4)C[C@H](NC(=O)c4cc5cc(C(=O)P(=O)(O)O)ccc5[nH]4)C(=O)N32)cc1 [Compound 40] | 0.01 to 0.1 µM | A (A (>=80%)) | 0.01 to 0.1 µM | 
CCS(=O)(=O)c1ccc(CNC(=O)[C@H](CCC(N)=O)NC(=O)[C@@H]2CC[C@@H]3CCN(C(=O)CCCCCc4cn([C@@H](C(=O)N5C[C@@H](O)C[C@@H]5C(=O)N[C@@H](C)c5ccc(-c6scnc6C)cc5)C5CCCCC5)nn4)C[C@H](NC(=O)c4cc5cc(C(=O)P(=O)(O)O)ccc5[nH]4)C(=O)N32)cc1 [Compound 28, (2-(((5S,8S,10aR)-8-(((S)-5-amino-1-((4-(ethylsulfonyl)benzyl)amino)-1,5-dioxopentan-2-yl)carbamoyl)-3-(6-(1-((R)-1-cyclohexyl-2-((2R,4S)-4-hydroxy-2-(((S)-1-(4-(4-methylthiazol-5-yl)phenyl)ethyl)carbamoyl)pyrrolidin-1-yl)-2-oxoethyl)-1H-1,2,3-triazol-4-yl)hexanoyl)-6-oxodecahydro-pyrrolo[1,2-a][1,5]diazocin-5-yl)carbamoyl)-1H-indole-5-carbonyl)phosphonic acid] | < 0.01 µM |  |  | > 80%
COCCOCCOCCOC[C@H](NC(=O)[C@@H]1C[C@@H](O)CN1C(=O)[C@@H](n1cc(CCCc2cccc(OC[C@H](CCC(N)=O)NC(=O)[C@@H]3CC[C@@H]4CCN(C(C)=O)C[C@H](NC(=O)c5cc6cc(C(=O)P(=O)(O)O)ccc6[nH]5)C(=O)N43)c2Cl)nn1)C(C)(C)C)c1ccc(-c2scnc2C)cc1 [Compound 35, (2-(((5S,8S,10aR)-3-acetyl-8-(((S)-5-amino-1-(2-chloro-3-(3-(1-((S)-1-((2S,4R)-4-hydroxy-2-(((R)-13-(4-(4-methylthiazol-5-yl)phenyl)-2,5,8,11-tetraoxatridecan-13-yl)carbamoyl)pyrrolidin-1-yl)-3,3-dimethyl-1-oxobutan-2-yl)-1H-1,2,3-triazol-4-yl)propyl)phenoxy)-5-oxopentan-2-yl)carbamoyl)-6-oxodecahydropyrrolo[1,2-a][1,5]diazocin-5-yl)carbamoyl)-1H-indole-5-carbonyl)phosphonic acid] | 0.01 to 0.1 µM |  | 0.01 to 0.1 µM | > 80%
COCCOCCOC[C@H](NC(=O)[C@@H]1C[C@@H](O)CN1C(=O)[C@@H](n1cc(CCCc2cccc(OC[C@H](CCC(N)=O)NC(=O)[C@@H]3CC[C@@H]4CCN(C(C)=O)C[C@H](NC(=O)c5cc6cc(C(=O)P(=O)(O)O)ccc6[nH]5)C(=O)N43)c2Cl)nn1)C(C)(C)C)c1ccc(-c2scnc2C)cc1 [Compound 27, (2-(((5S,8S,10aR)-3-acetyl-8-(((S)-5-amino-1-(2-chloro-3-(3-(1-((S)-1-((2S,4R)-4-hydroxy-2-(((R)-2-(2-(2-methoxyethoxy)ethoxy)-1-(4-(4-methylthiazol-5-yl)phenyl)ethyl)carbamoyl)pyrrolidin-1-yl)-3,3-dimethyl-1-oxobutan-2-yl)-1H-1,2,3-triazol-4-yl)propyl)phenoxy)-5-oxopentan-2-yl)carbamoyl)-6-oxodecahydropyrrolo[1,2-a][1,5]diazocin-5-yl)carbamoyl)-1H-indole-5-carbonyl)phosphonic acid] | < 0.01 µM |  |  | > 80%
CCS(=O)(=O)c1ccc(OC[C@H](CCC(N)=O)NC(=O)[C@@H]2CC[C@@H]3CCN(C(=O)CCCCc4cn([C@H](C(=O)N5C[C@H](O)C[C@H]5C(=O)N[C@@H](C)c5ccc(-c6scnc6C)cc5)C(C)(C)C)nn4)C[C@H](NC(=O)c4cc5cc(C(=O)P(=O)(O)O)ccc5[nH]4)C(=O)N32)cc1 [Compound 34, (2-(((5S,8S,10aR)-8-(((S)-5-amino-1-(4-(ethylsulfonyl)phenoxy)-5-oxopentan-2-yl)carbamoyl)-3-(5-(1-((S)-1-((2S,4R)-4-hydroxy-2-(((S)-1-(4-(4-methylthiazol-5-yl)phenyl)ethyl)carbamoyl)pyrrolidin-1-yl)-3,3-dimethyl-1-oxobutan-2-yl)-1H-1,2,3-triazol-4-yl)pentanoyl)-6-oxodecahydropyrrolo[1,2-a][1,5]diazocin-5-yl)carbamoyl)-1H-indole-5-carbonyl)phosphonic acid] | 0.01 to 0.1 µM |  |  | 60 to 80%
CCS(=O)(=O)c1ccc(CNC(=O)[C@H](CCC(N)=O)NC(=O)[C@@H]2CC[C@@H]3CCN(C(=O)CCCCCc4cn([C@@H](C(=O)N5C[C@@H](O)C[C@@H]5C(=O)N[C@@H](C)c5ccc(-c6scnc6C)cc5)C5CCOCC5)nn4)C[C@H](NC(=O)c4cc5cc(C(=O)P(=O)(O)O)ccc5[nH]4)C(=O)N32)cc1 [Compound 29, (2-(((5S,8S,10aR)-8-(((S)-5-amino-1-((4-(ethylsulfonyl)benzyl)amino)-1,5-dioxopentan-2-yl)carbamoyl)-3-(6-(1-((R)-2-((2R,4S)-4-hydroxy-2-(((S)-1-(4-(4-methylthiazol-5-yl)phenyl)ethyl)carbamoyl)pyrrolidin-1-yl)-2-oxo-1-(tetrahydro-2H-pyran-4-yl)ethyl)-1H-1,2,3-triazol-4-yl)hexanoyl)-6-oxodecahydropyrrolo[1,2-a][1,5]diazocin-5-yl)carbamoyl)-1H-indole-5-carbonyl)phosphonic acid] | < 0.01 µM |  |  | > 80%
CC(=O)N1CC[C@H]2CC[C@@H](C(=O)N[C@@H](CCC(N)=O)COc3cccc(CCCc4cn([C@H](C(=O)N5C[C@H](O)C[C@H]5C(=O)N[C@@H](C)c5ccc(-c6scnc6C)cc5)C(C)(C)C)nn4)c3Cl)N2C(=O)[C@@H](NC(=O)c2cc3cc(C(F)(F)P(=O)(O)O)ccc3s2)C1 [Compound 44] | < 0.01 µM |  |  | > 80%
CCS(=O)(=O)c1ccc(CNC(=O)[C@H](CCC(N)=O)NC(=O)[C@@H]2CC[C@@H]3CCN(C(=O)CCCCCc4cn([C@H](C(=O)N5C[C@H](O)C[C@H]5C(=O)N[C@@H](COCCOCCOC)c5ccc(-c6scnc6C)cc5)C(C)(C)C)nn4)C[C@H](NC(=O)c4cc5cc(C(=O)P(=O)(O)O)ccc5[nH]4)C(=O)N32)cc1 [Compound 26] | < 0.01 µM |  |  | > 80%
